Experimental data taken from ChEMBL document CHEMBL3616377, “2-(3'-Indolyl)-N-arylthiazole-4-carboxamides: Synthesis and evaluation of antibacterial and anticancer activities” (Bioorg Med Chem Lett, 2015).
Converted amounts (≈) assume the structure as drawn. The source made the active and inactive calls. No cut-off for these calls is given here.

What was measured:
[1] = tested on: HepG2; experiment: Cytotoxicity against human HepG2 cells by MTT assay; assay type: functional, cell-based
[2] = tested on: MCF7; experiment: Cytotoxicity against human MCF7 cells by MTT assay; assay type: functional, cell-based
[3] = tested on: SK-N-MC; experiment: Cytotoxicity against human SK-N-MC cells by MTT assay; assay type: functional, cell-based
[4] = tested on: PC-3; experiment: Cytotoxicity against human PC3 cells after 48 hrs by MTT assay in absence of 10% FBS; assay type: functional, cell-based; settings: PC-3, 48 h
[5] = tested on: Staphylococcus aureus; experiment: Antibacterial activity against Staphylococcus aureus MTCC 96 after 18 to 24 hrs by agar well diffusion method; assay type: functional
[6] = tested on: Bacillus subtilis; experiment: Antibacterial activity against Bacillus subtilis MTCC 121 after 18 to 24 hrs by agar well diffusion method; assay type: functional
[7] = tested on: Pseudomonas putida; experiment: Bactericidal activity against Pseudomonas putida MTCC 102 assessed as reduction of number of bacterial cells at 4 times MIC after 1 to 6 hrs; assay type: functional, organism-based
[8] = tested on: Pseudomonas putida; experiment: Antibacterial activity against Pseudomonas putida MTCC 102 after 18 to 24 hrs by agar well diffusion method; assay type: functional
[9] = tested on: Staphylococcus aureus; experiment: Antibacterial activity against Staphylococcus aureus MTCC 96 after 18 to 24 hrs by broth microdilution method; assay type: functional
[10] = tested on: LNCaP; experiment: Cytotoxicity against human LNCAP cells after 48 hrs by MTT assay in absence of 10% FBS; assay type: functional, cell-based
[11] = tested on: HeLa; experiment: Cytotoxicity against human HeLa cells after 48 hrs by MTT assay in absence of 10% FBS; assay type: functional, cell-based
[12] = tested on: HEK-293T; experiment: Cytotoxicity against human HEK293T cells after 48 hrs by MTT assay in absence of 10% FBS; assay type: cell-based
[13] = tested on: HEK-293T; experiment: Cytotoxicity against human HEK293T cells after 48 hrs by MTT assay in presence of 10% FBS; assay type: cell-based
[14] = tested on: LNCaP; experiment: Cytotoxicity against human LNCAP cells after 48 hrs by MTT assay in presence of 10% FBS; assay type: functional, cell-based
[15] = tested on: MDA-MB-231; experiment: Cytotoxicity against human MDA-MB-231 cells after 48 hrs by MTT assay in absence of 10% FBS; assay type: functional, cell-based; settings: MDA-MB-231, 48 h
[16] = tested on: Bacillus subtilis; experiment: Antibacterial activity against Bacillus subtilis MTCC 121 after 18 to 24 hrs by broth microdilution method; assay type: functional
[17] = tested on: MDA-MB-231; experiment: Cytotoxicity against human MDA-MB-231 cells after 48 hrs by MTT assay in presence of 10% FBS; assay type: functional, cell-based; settings: MDA-MB-231, 48 h
[18] = tested on: Pseudomonas putida; experiment: Antibacterial activity against Pseudomonas putida MTCC 102 after 18 to 24 hrs by broth microdilution method; assay type: functional
[19] = tested on: HeLa; experiment: Cytotoxicity against human HeLa cells after 48 hrs by MTT assay in presence of 10% FBS; assay type: functional, cell-based
[20] = tested on: Escherichia coli; experiment: Bactericidal activity against Escherichia coli MTCC 1652 assessed as reduction of number of bacterial cells at 4 times MIC after 2 to 3 hrs; assay type: functional, organism-based
[21] = tested on: Escherichia coli; experiment: Bactericidal activity against Escherichia coli MTCC 1652 assessed as reduction of number of bacterial cells at 4 times MIC after 1 to 6 hrs; assay type: functional, organism-based
[22] = tested on: Pseudomonas putida; experiment: Bactericidal activity against Pseudomonas putida MTCC 102 assessed as reduction of number of bacterial cells at 4 times MIC after 2 to 3 hrs; assay type: functional, organism-based
[23] = Cytotoxicity against human castration-resistant C4-2 cells after 48 hrs by MTT assay in presence of 10% FBS; assay type: functional, cell-based; settings: LNCaP C4-2, 48 h
[24] = tested on: PC-3; experiment: Cytotoxicity against human PC3 cells after 48 hrs by MTT assay in presence of 10% FBS; assay type: functional, cell-based; settings: PC-3, 48 h
[25] = tested on: HeLa; experiment: Induction of apoptosis in human HeLa cells assessed as formation of apoptotic nuclei formation at 10 uM after 24 hrs using propidium iodide staining by fluorescence microscopy analysis; assay type: functional, cell-based
[26] = tested on: Escherichia coli; experiment: Antibacterial activity against Escherichia coli MTCC 1652 after 18 to 24 hrs by broth microdilution method; assay type: functional
[27] = tested on: Escherichia coli; experiment: Antibacterial activity against Escherichia coli MTCC 1652 after 18 to 24 hrs by agar well diffusion method; assay type: functional
[28] = Cytotoxicity against human castration-resistant C4-2 cells after 48 hrs by MTT assay in absence of 10% FBS; assay type: functional, cell-based; settings: LNCaP C4-2, 48 h
[29] = tested on: Staphylococcus aureus; experiment: Antibacterial activity against methicillin-resistant Staphylococcus aureus; assay type: functional

**Q.** With `Cc1ccc(-c2nc(C(=O)Nc3ccccc3)cs2)cc1` as the compound, how does the IC50 [1] read?
**A.** 10 µM

**Q.** And the IC50 [2]?
**A.** 10 µM

**Q.** And the IC50 [3]?
**A.** 10 µM

**Q.** What does the source list for `COc1ccc2[nH]cc(-c3nc(C(=O)Nc4cc(OC)c(OC)c(OC)c4)cs3)c2c1`?
**A.** IC50 [4]: 94.3 µM; inhibition zone (IZ) [5]: 13 mm; inhibition zone (IZ) [6]: 14 mm; Activity [7]: Active; inhibition zone (IZ) [8]: 18 mm; MIC [9]: 100 µg/mL (≈ 228 µM); IC50 [10]: > 100 µM; IC50 [11]: 29.6 µM; IC50 [12]: 8.6 µM; IC50 [13]: 8.74 µM; IC50 [14]: 84.8 µM; IC50 [15]: > 100 µM; MIC [16]: 50 µg/mL (≈ 114 µM); IC50 [17]: > 100 µM; MIC [18]: 12.5 µg/mL (≈ 28.4 µM); IC50 [19]: 9.98 µM; Activity [20]: Active; Activity [21]: Active; Activity [22]: Active; IC50 [23]: > 100 µM; IC50 [24]: > 100 µM; Activity [25]: Active; MIC [26]: 12.5 µg/mL (≈ 28.4 µM); inhibition zone (IZ) [27]: 18 mm; IC50 [28]: > 100 µM

**Q.** Which MIC [29] does the source give for `Clc1ccc2ccc(-c3c[nH]c4ccc(Br)cc34)nc2c1` here?
**A.** < 1 µg/mL
